Measured values taken from US10195174B2, “Carbonic anhydrase IX-related markers and use thereof” (SIGNALCHEM LIFESCIENCES CORPORATION, priority 2011, dated 2019).

Legend:
[1] = tested on: MDA-MB-231 LM2-4 breast cancer cells; test: CAIX inhibitor with and without paclitaxel: tumor volume, lung metastases (IVIS) and EpCAM+ population (FACS); assay type: in vivo, NOD-SCID mice; conditions: tumors excised at humane end point, vs vehicle controls, three tumors per group
Experimental: MDA-MB-231 LM2-4 Luc+ cells were implanted into NOD/SCID mice, tumors were established for 10 days and treatment was then initiated. Paclitaxel was administered by i.v. injection and MST-104 was provided by i.p. injection according to the dosing schedule outlined in the graph (arrows). n=7-8/group. *P<0.02, **P<0.002.
Heat maps indicating metastases are overlaid on grayscale images of the lungs.
The mean total photon flux±SEM for each group is shown.
FIGS. 29A-29E show representative FACS data. NOD-SCID mice mammary fat pad were inoculated with MDA-MB-231 LM2-4 breast cancer cells. Mice were IV dosed with Paclitaxel, or MST-104, or both drugs in combination, or vehicle. At the humane end point, tumours were excised and the viable EpCAM positive population was assessed by FACS.
At the humane end point, tumors were excised and the viable EpCAM positive population was assessed by FACS. […]
All animal procedures and studies were carried out in accordance with protocols approved by the Institution Animal Care Committee at the BC Cancer Research Centre and the University of British Columbia (Vancouver, BC, Canada). […] Primary tumor growth rates were calculated from caliper measurements using the modified ellipsoid formula (L×W2)/2. Tumor formation and metastasis progression was monitored and quantified using bioluminescent imaging as previously described (Lou, McDonald et al. 2011). […]

parental 4T1 cell line = test: Tumorsphere (TS) formation from doubling dilutions, minimum number of cells required to form a TS; assay type: cell-based, mouse; conditions: parental 4T1, hypoxia, 7 days, 200 μM CAI17 (FIG. 6) vs vehicle
Experimental: FIG. 6 is a graph of the number of cells required to initiate TS growth. Parental 4T1 were seeded at doubling dilutions and cultured under TS-forming conditions with 200 μM CAI17 or vehicle added, in normoxia or hypoxia. Mean±SEM of three independent experiments is shown. Statistical significance was confirmed using T-test, *P<0.001, **P<0.0060.
For culture in hypoxia, cells were maintained in 1% O2 and 5% CO2 balanced with N2 at 37 degrees C. in a humidified incubator in a sealed anaerobic workstation. Stable depletion of murine CAIX in 4T1 cells was carried out as described previously (Lou, McDonald et al. 2011).
Cultured 4T1 cells were grown as monolayers with twice weekly sub-cultivation in DMEM (Gibco) containing 5% fetal bovine serum (FBS) (Sigma). Subsequently, parental, shNS and shCAIX 4T1 were cultured as Tumor Spheres (TSs) in Mammocult™ media (StemCell Technologies, Vancouver, B.C., Canada) as per the manufacturer's instructions (Lock, McDonald et al. 2012). Alternatively, for spinner culture TS growth, monolayer cells were trypsinized and single-cell suspensions were incubated at 2×10^5 to 4×10^5 cells/ml in sealed glass spinner culture flasks (Bellco, Vineland, N.J.) under constant rotation, at 150 RPM, 37° C. in DMEM (5% FBS) pre-equilibrated to 5% CO2 as previously described (Oloumi, MacPhail et al. 2000). Cultures were grown for up to 3 weeks. […]

[2] = tested on: mTORC1 signaling pathway in MDA-MB-231 LM2-4Luc+ tumor cells; test: Western blot of mTOR pathway components in tumor cells isolated from treated tumor-bearing mice; parameters: species or system NOD/SCID mice; conditions: in vivo treated tumors
Text: Levels of expression of Actin and GAPDH are shown as loading controls.
To assess the effect of inhibition of CAIX activity on the mTOR pathway by breast cancer cells in vivo, orthotopic human primary breast tumors using MDA-MB-231 LM2-4Luc^+ cells were established in NOD/SCID mice and treated tumor-bearing animals with vehicle or the CAIX-specific inhibitor MST-104. At the experimental end point, primary tumors were removed, dissociated and viable tumor cells lysed and subjected to Western blotting (Lock, McDonald et al. 2012). […] Raptor expression was not regulated following CAIX inhibition in vivo (Raptor/Actin densitometry: Vehicle 0.64 mean±0.05 SEM; U-104 mean 0.69±0.14 SEM).

[3] = tested on: EpCAM+ population of MDA-MB-231 LM2-4Luc+ tumors; test: EpCAM+ cancer stem cell population of excised primary tumors by FACS; assay type: in vivo, NOD/SCID mice; conditions: 27 days, 38 mg/kg MST-104 or 30 mg/kg MST-205, vs vehicle (mean 10% EpCAM+)
Experimental: FIGS. 22A and 22B are representative FACS plots (FIG. 22A) and a bar graph (FIG. 22B), showing the mean changes in EpCAM+ cells±SEM, from 3 mice. MDA-MB-231 LM2-4luc+ were implanted orthotopically into NOD/SCID mice. When tumors reached an average of […], animals received either vehicle or 38 mg/kg MST-104. After 27 days, primary tumors were removed, dissociated and EpCAM+ cell population assessed by FACS analysis. Statistical significance was confirmed using T-test. ***P<0.0331, **P<0.0224.
FIGS. 23A and 23B are representative FACS plots (FIG. 23A) and a bar graph (FIG. 23B) showing MDA-MB-231 LM2-4luc+ cells that were implanted orthotopically into NOD/SCID mice. […] After 27 days, primary tumors were removed, dissociated and EpCAM+ cell population assessed by FACS analysis. […]
All animal procedures and studies were carried out in accordance with protocols approved by the Institution Animal Care Committee at the BC Cancer Research Centre and the University of British Columbia (Vancouver, BC, Canada). […] Primary tumor growth rates were calculated from caliper measurements using the modified ellipsoid formula (L×W2)/2. Tumor formation and metastasis progression was monitored and quantified using bioluminescent imaging as previously described (Lou, McDonald et al. 2011).
The effect of CAIX inhibition on the primary tumor cancer stem cell population in vivo was quantified. […]

[4] = tested on: parental 4T1 CD44+CD24−/low cells; test: E-cadherin immunostaining of FACS-sorted 4T1 populations cultured in hypoxia with or without CAIX inhibitor; assay type: cell-based, mouse; conditions: hypoxia 5 days, 50 μM MST-104, vs vehicle
Experimental: FIG. 20 are images of parental 4T1 cells cultured as TSs in normoxia, disaggregated, stained for CD44, CD24 and collected by FACS. Viable CD44+CD24−/low or CD44−CD24+ cells were collected and cultured on glass coverslips in hypoxia for 5 days, with and without 50 μM MST-104, fixed and assessed by immunostaining for expression of E-cadherin.
4T1 TSs were incubated with trypsin, washed once in HF buffer (HBSS containing 2% Fetal Bovine Serum), then stained with anti-CD24-APC and anti-CD44-PECy7 using 0.3 μl of antibody per […] in 100 ul HF, and incubated on ice for 10 min. Following incubation, cells were washed once with HF buffer and resuspended in 300 ul HF buffer containing 4′,6-diamidino-2-phenylindole (DAPI; final concentration, 1 μg/ml). Cells were separated on an Aria™ cell sorter (BD Biosciences, San Jose, Calif., USA). Live cells were gated on the basis of forward and side scatter, and single cells were gated on the basis of forward scatter and pulse width. Gates were determined by analysis of unstained cells, isotype specific controls, and single stains. The CD44+CD24−/low or […] cells were not assessed for purity due to the low numbers of cells obtained. The cell counter of the flow cytometers was used to determine cell numbers. Cells were collected into DMEM media or HF buffer. […]

[5] = tested on: MDA-MB-231 LM2-4Luc+ primary breast tumor xenografts; test: Primary tumor growth of orthotopic breast tumor xenografts; assay type: in vivo, NOD/SCID mice; conditions: 38 mg/kg MST-104 or 30 mg/kg MST-205, vs vehicle controls, n=8/group
Experimental: FIG. 21 is a graphical representation of in vivo tumor growth. MDA-MB-231 LM2-4luc+ were implanted orthotopically into NOD/SCID mice. When tumors reached an average of […], animals received either vehicle, 38 mg/kg MST-104 or 30 mg/kg MST-205. Subsequent tumor growth was monitored. n=8/group.*P<0.02, **P<0.01.
All animal procedures and studies were carried out in accordance with protocols approved by the Institution Animal Care Committee at the BC Cancer Research Centre and the University of British Columbia (Vancouver, BC, Canada). For primary breast tumor xenografts, 2×10^6 MDA-MB-231 LM2-4Luc+ variant cells were suspended in a 50% Matrigel™/PBS solution and implanted orthotopically in 6-8 week-old female NOD.CB17-prkdcscid/J mice as previously described (Lou, McDonald et al. 2011). Therapy was initiated when tumors reached 200 mm^3. Primary tumor growth rates were calculated from caliper measurements using the modified ellipsoid formula (L×W2)/2. Tumor formation and metastasis progression was monitored and quantified using bioluminescent imaging as previously described (Lou, McDonald et al. 2011).
To evaluate the effect of CAIX inhibition on tumor growth and cancer stem cell expansion in vivo, primary breast tumor xenografts were established using a variant of the MDA-MB-231 cell line, MDA-MB-231 LM2-4Luc+. […] Tumor growth was assessed by caliper measurement and IVIS imaging.

| Compound | viable EpCAM positive population (mean percentage of EpCAM+ CSC) [1] | number of seeding cells required to form a TS (parental 4T1 cell line) | Raptor expression ([2]; Western blot, vs vehicle) | expression of the mTORC1 component mTOR ([2]; Western blot, vs vehicle) | mTORC1 signaling pathway ([2]; Western blot, vs vehicle) | phosphorylation and expression of 4EBP1 ([2]; Western blot, vs vehicle) | phosphorylation of Ser939 TSC2 ([2]; Western blot, vs vehicle) | Raptor/Actin densitometry ([2]; mean ± SEM (vehicle 0.64 ± 0.05)) | EpCAM+ population of primary tumors [3] | E-cadherin staining [4] | primary tumor growth (tumor volume) [5] |
| --- | --- | --- | --- | --- | --- | --- | --- | --- | --- | --- | --- |
| CC(=O)O[C@H]1C(=O)[C@@]2(C)[C@H]([C@H](OC(=O)c3ccccc3)[C@]3(O)C[C@H](OC(=O)[C@H](O)[C@@H](NC(=O)c4ccccc4)c4ccccc4)C(C)=C1C3(C)C)[C@]1(OC(C)=O)CO[C@@H]1C[C@@H]2O [paclitaxel, reference compound] | increase in the mean percentage of EpCAM+CSC |  |  |  |  |  |  |  |  |  |  |
| NS(=O)(=O)c1ccc(CCNC(=S)Nc2ccc(-c3c4ccc(=O)cc-4oc4cc(O)ccc34)c(C(=O)O)c2)cc1 [CAI017] |  | significantly increased |  |  |  |  |  |  |  |  |  |
| NS(=O)(=O)c1ccc(NC(=O)Nc2ccc(F)cc2)cc1 [MST-104] | significant decrease |  | not regulated | abolished | inhibition of the mTORC1 signaling pathway | depleted phosphorylation and expression | reduced phosphorylation | 0.69±0.14 | statistically significant reduced EpCAM+ population | robust E-cadherin staining | significant inhibition of primary tumor growth |
